Values quoted from earlier work in patent US20200268770A1, “PHARMACEUTICAL COMPOSITION USED FOR TREATING METABOLIC SYNDROME DISORDERS, INFECTIOUS DISEASES, AND COMPLICATIONS THEREOF” (priority 2017, published 2020).
Where two headings read alike, the source gives them in different places.

Legend:
3T3-L1 cells = 3T3-L1 cells stimulated by differentiation inducers
[1] = system: C57BL/6 mice fed with high fat foods
[2] = pre-treatment, C57BL/6 mice fed with high fat foods

| SMILES | TG synthesis (3T3-L1 cells) | lipid droplet accumulation (3T3-L1 cells) | glycated hemoglobin (after 21 days) | nitric oxide (after 21 days) | progression of diabetes (after 21 days) | serum glucose (after 21 days) | serum insulin levels (after 21 days) | antioxidant levels (in vivo) | content of thiobarbituric acid-reactive substances (in vivo) | fasting blood glucose levels [1, 2] | hepatic lipid accumulation [1, 2] | serum triglycerides (TG) [1, 2] | size of white and brown adipocytes [1, 2] | fasting blood glucose levels ([1]; therapeutic, obese mice) | glucose tolerance ([1]; therapeutic, obese mice) | high-density lipoprotein cholesterol (HDL-c) ([1]; therapeutic, obese mice) | low-density lipoprotein cholesterol (LDL-c) ([1]; therapeutic, obese mice) | serum TG ([1]; therapeutic, obese mice) |
| --- | --- | --- | --- | --- | --- | --- | --- | --- | --- | --- | --- | --- | --- | --- | --- | --- | --- | --- |
| C=C(C)[C@@H]1CC[C@]2(C)CC[C@]3(C)[C@H](CC[C@@H]4[C@@]5(C)CC[C@H](O)C(C)(C)[C@@H]5CC[C@]43C)[C@@H]12 [lupeol] | strongly blocked | strongly blocked | decrease | decrease | suppressed | decrease | concomitant increase | increased | decrease | – | – | – | – | – | – | – | – | – |
| C=C(C)[C@H]1CC=C(C)CC1 [d-limonene] | – | – | – | – | – | – | – | – | – | lowered | prevented | lowered | decreased | reduced | reduced | increased | reduced | reduced |
